Results reported in ChEMBL document CHEMBL4483862, “Open-source discovery of chemical leads for next-generation chemoprotective antimalarials” (2018).
pIC50: −log10 of the molar value.

System: Plasmodium berghei
Assay: Luciferase/luciferin-expressing antifolate-resistant parasites were used to infect a culture of HepG2 cells that were pre-incubated with compounds. Infected hepatocytes emit light due to the luciferase reaction. Assay results are presented as the percent inhibition of light emission compared to control. […]
Format: functional
Settings: sporozoite; for IC90: read-out: LUCIFERASE INFECTION ASSAY - IC90

| SMILES | IC90 [µM] | further results |
| --- | --- | --- |
| COc1ccc(Nc2nc(S(=O)(=O)c3ccc(C)cc3)c(Cl)s2)cc1 | > 10 | pIC50 (HEPG2TOX_HILL_SLOPE 11.4, HEPG2TOX_R_SQUARED 0.576, read-out: LUCIFERASE INFECTION ASSAY - IC50): < 5.00 |
| Cc1nc(Sc2nnnn2C)c2c3c(sc2n1)CCC3 | 4.17 | pIC50 (HEPG2TOX_HILL_SLOPE 11.4, HEPG2TOX_R_SQUARED 0.852, PBLUC_HILL_SLOPE 13, PBLUC_R_SQUARED 0.536, read-out: LUCIFERASE INFECTION ASSAY - IC50): 5.45 |
| Clc1ccc2c(NC3CCN(Cc4ccccc4)CC3)ccnc2c1 | 8.05 | pIC50 (HEPG2TOX_HILL_SLOPE 11.4, HEPG2TOX_R_SQUARED 0.805, PBLUC_HILL_SLOPE 13.2, 4.09, PBLUC_R_SQUARED 0.263, 0.797, read-out: LUCIFERASE INFECTION ASSAY - IC50): 5.22 |
| CC(=O)O[C@]1(C(C)=O)CCC2C3C[C@H](C)C4=CC(=O)CCC4(C)C3CCC21C (some centres undefined) | > 8.54 | pIC50 (HEPG2TOX_HILL_SLOPE 11.5, HEPG2TOX_R_SQUARED 0.0757, read-out: LUCIFERASE INFECTION ASSAY - IC50): < 5.07 |
| CN(CC(=O)Nc1cccc(F)c1)C(=O)c1csc(COc2ccc(Cl)cc2)n1 | 6.38 | pIC50 (HEPG2TOX_HILL_SLOPE 11.6, HEPG2TOX_R_SQUARED 0.266, PBLUC_HILL_SLOPE 151, PBLUC_R_SQUARED 0.192, read-out: LUCIFERASE INFECTION ASSAY - IC50): 5.20 |
| FC(F)(F)c1cc(Nc2nc(C(F)(F)F)cs2)cc(C(F)(F)F)c1 | 3.63 | pIC50 (HEPG2TOX_HILL_SLOPE 11.5, HEPG2TOX_R_SQUARED 0.969, PBLUC_HILL_SLOPE 12.1, PBLUC_R_SQUARED 0.577, read-out: LUCIFERASE INFECTION ASSAY - IC50): 5.52 |
| COc1ccc(C(=O)/C=C/c2cccc(C#N)c2)cc1CN1CCCC1 | > 10 | pIC50 (HEPG2TOX_HILL_SLOPE 11.5, HEPG2TOX_R_SQUARED 0.623, read-out: LUCIFERASE INFECTION ASSAY - IC50): < 5.00 |
| CCOC(=O)c1ccsc1NC(=O)CNc1ccc(Br)cc1 | > 10 | pIC50 (HEPG2TOX_HILL_SLOPE 11.3, HEPG2TOX_R_SQUARED 0.575, read-out: LUCIFERASE INFECTION ASSAY - IC50): < 5.00 |
| COC(=O)c1c(NC(=O)c2cccnc2)c2cc(NCc3ccco3)cnc2n1Cc1ccccc1 | > 6.85 | pIC50 (HEPG2TOX_HILL_SLOPE 11.5, HEPG2TOX_R_SQUARED 0.854, PBLUC_HILL_SLOPE 4.03, PBLUC_R_SQUARED 0.534, read-out: LUCIFERASE INFECTION ASSAY - IC50): 5.35 |
| O=C(Nc1cccc(Cl)c1)Nc1ccc2nc(-c3ccc(F)c(Cl)c3)nn2c1 | 7.37 | pIC50 (HEPG2TOX_HILL_SLOPE 11.5, HEPG2TOX_R_SQUARED 0.414, PBLUC_HILL_SLOPE 109, PBLUC_R_SQUARED 0.131, read-out: LUCIFERASE INFECTION ASSAY - IC50): 5.14 |
| Cc1ccccc1NC(=S)N/N=C/c1ccccc1[N+](=O)[O-] | 3.66 | pIC50 (HEPG2TOX_HILL_SLOPE 11.4, HEPG2TOX_R_SQUARED 0.668, PBLUC_HILL_SLOPE 15.4, PBLUC_R_SQUARED 0.358, read-out: LUCIFERASE INFECTION ASSAY - IC50): 5.50 |
| Cc1nn(-c2cccc(Cl)c2)c2nc(-c3ccccc3)c(-c3nc4ccccc4s3)c(-c3cccnc3)c12 | > 10 | pIC50 (HEPG2TOX_HILL_SLOPE 11.2, HEPG2TOX_R_SQUARED 0.958, read-out: LUCIFERASE INFECTION ASSAY - IC50): < 5.00 |
| CC(=O)c1cccc(-c2cc3c(cn2)nc(NCc2ccccc2F)n3C)c1 | > 10 | pIC50 (HEPG2TOX_HILL_SLOPE 11.4, HEPG2TOX_R_SQUARED 0.658, PBLUC_HILL_SLOPE 2.4, PBLUC_R_SQUARED 0.114, read-out: LUCIFERASE INFECTION ASSAY - IC50): 5.18 |
| CC(C)CC(N)c1csc(Nc2nncc3ccccc23)n1 (centres undefined) | 4.43 | pIC50 (HEPG2TOX_HILL_SLOPE 11.3, HEPG2TOX_R_SQUARED 0.262, PBLUC_HILL_SLOPE 9.28, PBLUC_R_SQUARED 0.498, read-out: LUCIFERASE INFECTION ASSAY - IC50): 5.46 |
| COc1cc(-c2cc(-c3cc(C)c(O)c(C)c3)cnc2N)ccc1O | 3.93 | pIC50 (HEPG2TOX_HILL_SLOPE 11.4, HEPG2TOX_R_SQUARED 0.062, PBLUC_HILL_SLOPE 8, PBLUC_R_SQUARED 0.677, read-out: LUCIFERASE INFECTION ASSAY - IC50): 5.52 |
| COc1ccc(C(C)C)cc1-c1cnc(N)c(-c2ccc(F)c(Cl)c2)c1 | > 8.9 | pIC50 (HEPG2TOX_HILL_SLOPE 11.3, HEPG2TOX_R_SQUARED 0.599, PBLUC_HILL_SLOPE 2.08, PBLUC_R_SQUARED 0.63, read-out: LUCIFERASE INFECTION ASSAY - IC50): 5.40 |

| SMILES | IC90 [µM] | further results |
| --- | --- | --- |
| CCn1c(NC(=O)c2c(C)nn(-c3ccccc3)c2C)nc2ccccc21 | 9.89 | pIC50 (HEPG2TOX_HILL_SLOPE 11.2, HEPG2TOX_R_SQUARED 0.651, PBLUC_HILL_SLOPE 20.8, PBLUC_R_SQUARED 0.508, read-out: LUCIFERASE INFECTION ASSAY - IC50): 5.05 |
| CC(NC(=O)c1cnn(-c2ccc(C(F)(F)F)cn2)c1C(F)(F)F)C1CC2CCC1C2 (centres undefined) | 5.3 | pIC50 (HEPG2TOX_HILL_SLOPE 11.2, HEPG2TOX_R_SQUARED 0.292, PBLUC_HILL_SLOPE 7.94, PBLUC_R_SQUARED 0.51, read-out: LUCIFERASE INFECTION ASSAY - IC50): 5.40 |
| Cc1nnc(Sc2ncnc3scc(-c4ccccc4)c23)s1 | 6.88 | pIC50 (HEPG2TOX_HILL_SLOPE 11.3, HEPG2TOX_R_SQUARED 0.507, PBLUC_HILL_SLOPE 5.22, PBLUC_R_SQUARED 0.122, read-out: LUCIFERASE INFECTION ASSAY - IC50): 5.34 |
| COc1ccc(-c2cncc(-c3ccc(O)c(OC)c3)n2)cc1 | 0.463 | pIC50 (HEPG2TOX_HILL_SLOPE 11.5, HEPG2TOX_R_SQUARED 0.964, PBLUC_HILL_SLOPE 4.2, PBLUC_R_SQUARED 0.828, read-out: LUCIFERASE INFECTION ASSAY - IC50): 6.56 |
| CC(=O)Oc1ccc(-c2ccc(C(=O)OCC(=O)Nc3sccc3C(N)=O)cc2)cc1 | > 10 | pIC50 (HEPG2TOX_HILL_SLOPE 11.3, HEPG2TOX_R_SQUARED 0.976, PBLUC_HILL_SLOPE 2.77, PBLUC_R_SQUARED 0.661, read-out: LUCIFERASE INFECTION ASSAY - IC50): 5.30 |
| FC(F)(F)Oc1ccc(-c2cnc3ccc(NCc4ccccn4)nn23)cc1 | 1.24 | pIC50 (HEPG2TOX_HILL_SLOPE 11.3, HEPG2TOX_R_SQUARED 0.834, PBLUC_HILL_SLOPE 11.1, PBLUC_R_SQUARED 0.439, read-out: LUCIFERASE INFECTION ASSAY - IC50): 5.99 |
| Cc1cc(C(C)(C)C)cc(C)c1N1C(=O)C=CC1=O | > 12.8 | pIC50 (HEPG2TOX_HILL_SLOPE 11.2, HEPG2TOX_R_SQUARED 0.888, PBLUC_HILL_SLOPE 4.45, PBLUC_R_SQUARED 0.621, read-out: LUCIFERASE INFECTION ASSAY - IC50): 5.05 |
| O=[N+]([O-])c1cc(-c2nc(-c3cc(C(F)(F)F)cc(C(F)(F)F)c3)no2)cs1 | > 8.06 | pIC50 (HEPG2TOX_HILL_SLOPE 11.5, HEPG2TOX_R_SQUARED 0.674, read-out: LUCIFERASE INFECTION ASSAY - IC50): < 5.09 |
| CCN1CCC[C@H]1CNC(=O)C(C)c1ccc2c(c1)[nH]c1ccc(Cl)cc12 (some centres undefined) | 5.54 | pIC50 (HEPG2TOX_HILL_SLOPE 11.5, HEPG2TOX_R_SQUARED 0.93, PBLUC_HILL_SLOPE 6.18, PBLUC_R_SQUARED 0.807, read-out: LUCIFERASE INFECTION ASSAY - IC50): 5.41 |
| Cc1cc(Nc2ccc3c(=O)c(-c4c(F)cccc4Cl)c(C)oc3c2)no1 | > 10 | pIC50 (HEPG2TOX_HILL_SLOPE 11.5, HEPG2TOX_R_SQUARED 0.0504, PBLUC_HILL_SLOPE 0.784, PBLUC_R_SQUARED 0.684, read-out: LUCIFERASE INFECTION ASSAY - IC50): 5.95 |
| O=C(COc1ccccc1C(=O)Nc1nc(-c2ccccc2)cs1)Nc1cccc(C(F)(F)F)c1 | 5.93 | pIC50 (HEPG2TOX_HILL_SLOPE 11.2, HEPG2TOX_R_SQUARED 0.982, PBLUC_HILL_SLOPE 4.71, PBLUC_R_SQUARED 0.747, read-out: LUCIFERASE INFECTION ASSAY - IC50): 5.43 |
| O=C(Nc1ccc(-c2nc3ccccc3[nH]2)cc1)c1ccc2c(=O)n3c(nc2c1)CCCCCC3 | 4.15 | pIC50 (HEPG2TOX_HILL_SLOPE 11.2, HEPG2TOX_R_SQUARED 0.937, PBLUC_HILL_SLOPE 12.6, PBLUC_R_SQUARED 0.815, read-out: LUCIFERASE INFECTION ASSAY - IC50): 5.46 |
| O=[N+]([O-])c1ccc(-c2nnc(SCc3c(Cl)cccc3Cl)o2)o1 | 8.84 | pIC50 (HEPG2TOX_HILL_SLOPE 11.4, HEPG2TOX_R_SQUARED 0.952, PBLUC_HILL_SLOPE 3.38, PBLUC_R_SQUARED 0.564, read-out: LUCIFERASE INFECTION ASSAY - IC50): 5.34 |
| NC(=O)NC(CC(=O)Nc1ccc2c(c1)-c1ccccc1C2)c1ccccc1 (centres undefined) | > 10 | pIC50 (HEPG2TOX_HILL_SLOPE 11.3, HEPG2TOX_R_SQUARED 0.75, PBLUC_HILL_SLOPE 2.98, PBLUC_R_SQUARED 0.106, read-out: LUCIFERASE INFECTION ASSAY - IC50): 5.17 |
| Cc1ccc(NC(=S)NC2CCCCCCCCCCC2)cc1Cl | 8.43 | pIC50 (HEPG2TOX_HILL_SLOPE 11.3, HEPG2TOX_R_SQUARED 0.761, PBLUC_HILL_SLOPE 19.1, PBLUC_R_SQUARED 0.333, read-out: LUCIFERASE INFECTION ASSAY - IC50): 5.12 |
| O=C(Nc1ccc(SC(F)(F)F)cc1)Nc1cccnc1N1CCC(C(F)(F)F)CC1 | 2.33 | pIC50 (HEPG2TOX_HILL_SLOPE 11.5, HEPG2TOX_R_SQUARED 0.688, PBLUC_HILL_SLOPE 15.9, PBLUC_R_SQUARED 0.276, read-out: LUCIFERASE INFECTION ASSAY - IC50): 5.69 |
